Where two headings read alike, the source gives them in different places.
What was measured:
Ros1 enzyme = target: T1, Ros1 enzyme (Homo sapiens, UniProt P08922); assay: Ros1 enzymatic assay; type: biochemical; details: Ros1 enzymatic assay; read-out: ROS1 pIC50 (converted)
T1 construct: 0.5 μg/ml Ros1 enzyme
Summary of the method: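 Peptide phosphorylation by Ros1 is measured by 33P transfer from 20 μM ATP (as prepared in substrate mix) over 2 h at ambient temperature, pH 7.5 with Mg2+.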

[1] = target: T2, Ba/F3 cells containing Ros1 wild-type protein (Homo sapiens, UniProt P08922, cells depend on it, form not given); assay: Ba/F3-Ros1 cell proliferation assay, wild-type Ros1; type: cell-based, murine; details: without IL-3
T2 construct: The background only speaks of 'a number of different unrelated proteins' and names SLC34A2-ROS1 for HCC78 cells
T2 sequence (P08922 whole entry, stated change not applied): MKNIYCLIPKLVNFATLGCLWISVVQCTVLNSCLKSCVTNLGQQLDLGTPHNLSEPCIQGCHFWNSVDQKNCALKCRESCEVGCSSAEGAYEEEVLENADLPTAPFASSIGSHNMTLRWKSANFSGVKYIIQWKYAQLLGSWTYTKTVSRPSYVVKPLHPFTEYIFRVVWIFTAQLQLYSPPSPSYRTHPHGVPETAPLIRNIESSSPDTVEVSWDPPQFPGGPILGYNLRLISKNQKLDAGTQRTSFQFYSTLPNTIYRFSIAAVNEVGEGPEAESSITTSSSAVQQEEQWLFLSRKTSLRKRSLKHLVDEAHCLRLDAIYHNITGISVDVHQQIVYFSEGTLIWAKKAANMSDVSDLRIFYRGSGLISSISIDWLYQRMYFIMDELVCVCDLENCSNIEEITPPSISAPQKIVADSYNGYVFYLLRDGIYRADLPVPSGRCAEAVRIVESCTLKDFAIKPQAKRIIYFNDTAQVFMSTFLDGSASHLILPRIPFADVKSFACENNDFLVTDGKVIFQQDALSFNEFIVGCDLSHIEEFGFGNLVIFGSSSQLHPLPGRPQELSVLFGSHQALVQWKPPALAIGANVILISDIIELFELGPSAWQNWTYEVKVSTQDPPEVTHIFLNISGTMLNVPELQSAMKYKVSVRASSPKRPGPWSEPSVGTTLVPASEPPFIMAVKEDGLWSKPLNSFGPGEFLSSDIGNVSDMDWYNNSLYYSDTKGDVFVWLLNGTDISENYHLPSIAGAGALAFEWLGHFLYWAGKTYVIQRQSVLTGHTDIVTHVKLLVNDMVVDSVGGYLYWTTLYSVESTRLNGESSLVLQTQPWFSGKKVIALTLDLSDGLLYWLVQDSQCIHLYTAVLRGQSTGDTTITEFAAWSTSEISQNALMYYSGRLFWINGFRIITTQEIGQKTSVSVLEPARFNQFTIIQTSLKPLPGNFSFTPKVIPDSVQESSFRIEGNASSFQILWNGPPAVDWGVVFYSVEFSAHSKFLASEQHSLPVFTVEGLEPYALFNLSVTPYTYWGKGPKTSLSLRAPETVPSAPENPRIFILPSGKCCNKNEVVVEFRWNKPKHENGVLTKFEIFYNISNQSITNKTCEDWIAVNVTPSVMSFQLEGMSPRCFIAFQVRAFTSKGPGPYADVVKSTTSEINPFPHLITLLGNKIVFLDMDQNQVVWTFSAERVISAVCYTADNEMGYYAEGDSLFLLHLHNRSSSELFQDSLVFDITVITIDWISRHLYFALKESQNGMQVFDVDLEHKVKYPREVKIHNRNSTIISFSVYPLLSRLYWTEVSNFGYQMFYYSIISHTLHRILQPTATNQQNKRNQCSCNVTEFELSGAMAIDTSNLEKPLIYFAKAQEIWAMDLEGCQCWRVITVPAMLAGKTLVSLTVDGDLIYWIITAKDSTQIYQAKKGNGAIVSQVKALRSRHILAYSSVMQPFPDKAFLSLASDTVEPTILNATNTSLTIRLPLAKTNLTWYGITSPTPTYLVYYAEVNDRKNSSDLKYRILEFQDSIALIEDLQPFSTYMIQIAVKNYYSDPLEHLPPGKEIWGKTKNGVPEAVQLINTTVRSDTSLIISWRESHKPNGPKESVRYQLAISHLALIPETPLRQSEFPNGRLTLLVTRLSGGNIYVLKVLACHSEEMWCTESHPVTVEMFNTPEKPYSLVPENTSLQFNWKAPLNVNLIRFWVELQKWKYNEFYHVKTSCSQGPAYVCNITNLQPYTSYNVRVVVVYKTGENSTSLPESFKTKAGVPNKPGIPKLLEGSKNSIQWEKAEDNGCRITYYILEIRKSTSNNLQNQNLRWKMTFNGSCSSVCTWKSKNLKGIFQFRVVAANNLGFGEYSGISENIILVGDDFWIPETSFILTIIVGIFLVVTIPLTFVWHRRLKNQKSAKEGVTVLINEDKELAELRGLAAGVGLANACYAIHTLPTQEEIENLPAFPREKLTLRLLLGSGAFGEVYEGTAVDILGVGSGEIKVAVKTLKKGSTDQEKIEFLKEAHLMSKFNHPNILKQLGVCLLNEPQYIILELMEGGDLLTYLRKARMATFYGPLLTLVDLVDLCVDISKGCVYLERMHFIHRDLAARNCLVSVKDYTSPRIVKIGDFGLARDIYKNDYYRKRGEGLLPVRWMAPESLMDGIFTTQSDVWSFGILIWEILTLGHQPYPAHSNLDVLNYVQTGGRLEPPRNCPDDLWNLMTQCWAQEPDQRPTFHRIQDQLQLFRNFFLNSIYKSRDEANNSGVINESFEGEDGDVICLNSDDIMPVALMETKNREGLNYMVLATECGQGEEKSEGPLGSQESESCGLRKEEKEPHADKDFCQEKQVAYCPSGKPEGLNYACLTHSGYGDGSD
Summary of the method: (§1)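 Ba/F3 cells expressing wild-type, L2026M or G2032R Ros1, 20000 cells/well in phenol red-free RPMI-1640 with 10% FBS, 2 mM L-glutamine, exposed to compound for 24 h at 37 °C, 5% CO2. Viability read by Alamar Blue (resazurin) fluorescence, ex 540/em 590 nm, after 4 h further incubation.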

[2] = target: Ba/F3 cells containing Ros1 with a mutation at the gatekeeper residue (L2026M) (Homo sapiens, UniProt P08922, L2026M, cells depend on it, form not given); assay: Ba/F3-Ros1 cell proliferation assay, L2026M gatekeeper mutant; type: cell-based, murine; details: without IL-3
Sequence of Ba/F3 cells containing Ros1 with a mutation at the gatekeeper residue (L2026M) (P08922 whole entry L2026M, form open): as the sequence (P08922 whole entry, stated change not applied) above, with L2026M counted along it
Summary of the method: as §1

[3] = test system: Ba/F3 cells containing Ros1 wild-type protein + IL-3; assay: Ba/F3-Ros1 cell proliferation counter-screen, wild-type protein in the presence of 10 ng/ml murine IL-3; type: cell-based; details: Mus musculus, BaF3, 24 h, read-out: BaF3-ROS1 + IL3 pIC50 (converted)
Summary of the method: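 Proliferation of IL-3-supplemented (10 ng/ml, murine) Ba/F3 cells bearing wild-type Ros1 is measured after 24 h compound treatment. Alamar Blue conversion over 4 h gives fluorescence at 590 nm.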

[4] = test system: HCC78 non-small cell lung cancer cells; assay: HCC78 cell proliferation assay; type: cell-based; details: Homo sapiens, HCC78, 96 h, read-out: HCC-78 PROL pEC50 (converted)
Summary of the method: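 HCC78 NSCLC cells (~1000/well) in RPMI-1640 with 10% FBS were treated 24 h after seeding and exposed to compound for 4 days at 37 °C. Viability was read by MTT, with absorbance at 538 nm after DMSO/glycine solubilization.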

[5] = test system: Ros pY2274 in HCC78 cells; assay: pROS1 immunofluorescence assay in HCC78 cells; type: cell-based; details: Homo sapiens, read-out: HCC78-pRos1 pIC50 (converted)
Method: pROS1 Immunofluorescence Assay in HCC78 Cells
Approximately 20000 HCC78 non-small cell lung cancer cells in 180 μl of cell culture medium (RPMI-1640, 10% FBS, 2 mM L-Glutamine, 10 mM Hepes, 1 mM sodium pyruvate, 4.5 g/L glucose, 1.5 g/L sodium bicarbonate, 25 μg/ml Gentamycin) were seeded in each well of a 96-well polystyrene, poly-D-lysine coated plate and incubated at 37° C. and 5% CO2. After 24 hours, compounds were diluted in cell culture medium from which 20 μl was added to the wells containing cells and incubated for 4 hours at 37° C. and 5% CO2. The medium was removed and the cells were fixed by adding 100 μl of 5% formaldehyde in TBS (tris-buffered saline) (50 mM Tris.HCl, pH 7.4, 150 mM NaCl) and incubating for 15 minutes at room temperature. The formaldehyde was removed and replaced with methanol for 10 minutes at room temperature, after which the cells were washed 3 times with TBS containing 1% Triton X-100 and incubated in Odyssee (Li-Cor) blocking buffer for 1 hour at room temperature. The cells were then incubated with the primary rabbit antibody directed against Ros pY2274 (cst-3078) diluted 1/200 in blocking buffer for 24 hours at room temperature. The cells were washed three times with TBS containing 0.1% Triton X-100 and incubated with a secondary anti-rabbit antibody conjugated to the fluorescent dye Alexafluor 680 in blocking buffer for 1 hour at room temperature. The cells were washed three times with TBS containing 0.1% Triton X-100 and left to dry before measuring RFUs (Relative Fluorescence Units) at 700 nm using a fluorescence imager.
The same experiment was performed using total Ros1 antibody (sc-6347) diluted 1/1000 instead of Ros1 pY2274 antibody and an anti-goat antibody conjugated to IRDye800cw as a secondary antibody. RFUs were measured at […]. The signals from total Ros1 detection were used to normalize the Ros1 pY2274 values.

[6] = counter-screen, wild-type, 10 ng/ml murine IL-3
[7] = HCC78 cells, 4 hours, Ros pY2274 normalized to total Ros1

T1 sequence (P08922 28-2347): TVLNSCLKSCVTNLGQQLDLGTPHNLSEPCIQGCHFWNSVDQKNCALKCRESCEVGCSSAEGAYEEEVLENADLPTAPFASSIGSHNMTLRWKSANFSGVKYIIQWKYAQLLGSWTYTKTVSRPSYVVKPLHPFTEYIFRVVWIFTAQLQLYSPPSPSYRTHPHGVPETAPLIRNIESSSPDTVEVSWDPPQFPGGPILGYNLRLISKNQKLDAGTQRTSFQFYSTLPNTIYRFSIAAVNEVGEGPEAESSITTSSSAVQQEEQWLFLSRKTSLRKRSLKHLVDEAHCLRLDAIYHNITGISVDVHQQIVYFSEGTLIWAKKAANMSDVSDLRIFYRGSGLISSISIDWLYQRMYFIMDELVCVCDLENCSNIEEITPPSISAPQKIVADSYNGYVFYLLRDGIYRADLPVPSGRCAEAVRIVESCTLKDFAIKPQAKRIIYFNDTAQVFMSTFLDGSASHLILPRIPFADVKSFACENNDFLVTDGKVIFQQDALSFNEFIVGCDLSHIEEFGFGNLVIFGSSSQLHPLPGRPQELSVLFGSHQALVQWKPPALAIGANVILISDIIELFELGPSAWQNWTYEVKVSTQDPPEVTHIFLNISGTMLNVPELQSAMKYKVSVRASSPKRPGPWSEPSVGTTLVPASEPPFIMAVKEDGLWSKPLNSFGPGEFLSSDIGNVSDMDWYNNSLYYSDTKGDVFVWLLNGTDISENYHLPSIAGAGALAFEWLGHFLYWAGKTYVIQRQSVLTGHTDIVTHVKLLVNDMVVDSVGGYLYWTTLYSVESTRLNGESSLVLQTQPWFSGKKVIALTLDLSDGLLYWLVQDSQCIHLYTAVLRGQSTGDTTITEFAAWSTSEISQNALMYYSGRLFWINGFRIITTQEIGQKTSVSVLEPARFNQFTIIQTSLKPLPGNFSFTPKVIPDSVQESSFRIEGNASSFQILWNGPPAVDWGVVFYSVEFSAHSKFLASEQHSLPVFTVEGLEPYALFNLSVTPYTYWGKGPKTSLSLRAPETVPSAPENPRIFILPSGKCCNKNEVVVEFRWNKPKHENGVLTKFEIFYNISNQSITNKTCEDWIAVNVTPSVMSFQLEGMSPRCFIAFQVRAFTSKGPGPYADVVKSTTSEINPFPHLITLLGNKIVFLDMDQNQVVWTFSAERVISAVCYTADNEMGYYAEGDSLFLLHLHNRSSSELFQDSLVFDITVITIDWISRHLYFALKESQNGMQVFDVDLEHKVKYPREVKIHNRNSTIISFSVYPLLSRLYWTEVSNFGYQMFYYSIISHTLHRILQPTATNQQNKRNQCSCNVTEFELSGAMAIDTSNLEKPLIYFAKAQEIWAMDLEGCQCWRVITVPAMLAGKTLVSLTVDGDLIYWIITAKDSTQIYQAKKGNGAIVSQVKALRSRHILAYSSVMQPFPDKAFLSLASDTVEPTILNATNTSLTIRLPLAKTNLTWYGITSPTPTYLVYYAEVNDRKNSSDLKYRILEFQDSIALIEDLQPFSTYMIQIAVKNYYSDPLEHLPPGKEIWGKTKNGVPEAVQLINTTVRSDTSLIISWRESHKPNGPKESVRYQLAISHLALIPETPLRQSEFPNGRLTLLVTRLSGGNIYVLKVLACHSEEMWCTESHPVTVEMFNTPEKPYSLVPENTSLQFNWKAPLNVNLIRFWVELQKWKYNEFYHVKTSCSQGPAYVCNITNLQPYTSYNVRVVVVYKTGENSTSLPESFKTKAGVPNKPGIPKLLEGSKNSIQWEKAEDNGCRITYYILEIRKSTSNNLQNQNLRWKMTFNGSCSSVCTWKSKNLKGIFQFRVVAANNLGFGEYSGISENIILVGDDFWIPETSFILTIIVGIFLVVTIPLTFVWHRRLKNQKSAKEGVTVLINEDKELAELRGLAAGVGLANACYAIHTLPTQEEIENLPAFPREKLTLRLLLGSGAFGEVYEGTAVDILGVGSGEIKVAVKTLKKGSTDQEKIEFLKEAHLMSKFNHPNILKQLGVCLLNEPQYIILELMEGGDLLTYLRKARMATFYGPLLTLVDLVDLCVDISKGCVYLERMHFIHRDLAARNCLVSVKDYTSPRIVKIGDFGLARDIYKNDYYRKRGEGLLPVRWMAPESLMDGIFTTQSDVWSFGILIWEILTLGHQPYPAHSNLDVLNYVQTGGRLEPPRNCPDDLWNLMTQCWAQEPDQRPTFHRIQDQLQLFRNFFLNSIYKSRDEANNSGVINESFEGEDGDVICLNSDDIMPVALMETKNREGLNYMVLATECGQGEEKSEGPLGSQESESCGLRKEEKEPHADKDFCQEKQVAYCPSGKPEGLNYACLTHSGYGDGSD

CC(C)c1ccc(COc2ccc(-c3c(-c4ccncc4)nn4c3C(=O)NCC4)nc2)cc1 [Compound 12]
IC50 (Ros1 enzyme): 316 nM | BaF3-ROS1-IL3 pIC50 [1]: 6.5 | Ba/F3 Ros1 L2026M (-IL-3) pIC50 [2]: 6.7 | CC50 [3]: > 10000 nM | EC50 [4]: 794 nM | IC50 ([5]; HCC78, 4 h): 501 nM | melting point: 84 °C

CC(C)c1ccc(COc2ccc(-c3c(-c4ccncn4)nn4c3C(=O)N(CC3(C)COC3)CC4)cc2)cc1 [Compound 163]
IC50 (Ros1 enzyme): 126 nM | BaF3-ROS1-IL3 pIC50 [1]: 7.1 | Ba/F3 Ros1 L2026M (-IL-3) pIC50 [2]: 7.1 | CC50 [3, 6]: > 10000 nM | EC50 ([4]; HCC78 cells, 4 days, MTT): 126 nM | IC50 [5, 7]: 316 nM

CC(C)(O)c1ccc(COc2ccc(-c3c(-c4ccncc4)nn4c3C(=O)NCC4)cc2)cc1 [Compound 9]
IC50 (Ros1 enzyme): 631 nM | BaF3-ROS1-IL3 pIC50 [1]: 6.4 | Ba/F3 Ros1 L2026M (-IL-3) pIC50 [2]: 6.2 | CC50 [3, 6]: > 10000 nM | EC50 ([4]; HCC78 cells, 4 days, MTT): 2000 nM | IC50 [5, 7]: 2510 nM | melting point: 290 °C

CC(C)c1ccc(COc2ccc(-c3c(-c4ccncc4)nn4c3CNCC4)cc2)cc1 [Compound 173]
IC50 (Ros1 enzyme): 398 nM | BaF3-ROS1-IL3 pIC50 [1]: 6.1 | CC50 [3, 6]: > 10000 nM | EC50 ([4]; HCC78 cells, 4 days, MTT): 1580 nM | IC50 [5, 7]: 316 nM | melting point: 194 °C

O=C1NCCn2nc(-c3ccncc3)c(-c3ccc(OCC#Cc4ccccc4)cc3)c21 [Compound 142]
IC50 (Ros1 enzyme): 126 nM | BaF3-ROS1-IL3 pIC50 [1]: 6.9 | Ba/F3 Ros1 L2026M (-IL-3) pIC50 [2]: 6.4 | CC50 [3]: > 10000 nM | EC50 [4]: 398 nM | IC50 ([5]; HCC78, 4 h): 126 nM | melting point: 245 °C

COc1cc(-c2c(-c3ccncc3)nn3c2C(=O)N(C)CC3)ccc1OCc1ccc(C(C)C)cc1 [Compound 33]
IC50 (Ros1 enzyme): 10 nM | BaF3-ROS1-IL3 pIC50 [1]: 7.7 | Ba/F3 Ros1 L2026M (-IL-3) pIC50 [2]: 7.4 | CC50 [3]: > 10000 nM | EC50 [4]: < 31.6 nM | IC50 ([5]; HCC78, 4 h): 12.6 nM | melting point: 151 °C

CC(C)c1ncc(COc2ccc(-c3c(-c4ccncc4)nn4c3C(=O)NCC4)cc2)cn1 [Compound 103]
IC50 (Ros1 enzyme): 1260 nM | BaF3-ROS1-IL3 pIC50 [1]: 6.0 | CC50 [3]: > 10000 nM | EC50 [4]: 2000 nM | IC50 ([5]; HCC78, 4 h): 3980 nM | melting point: 235 °C

O=C1NCCn2nc(-c3ccncc3)c(-c3ccc(OCc4ccc(C5CC5)nc4)cc3)c21 [Compound 3]
IC50 (Ros1 enzyme): 79.4 nM | BaF3-ROS1-IL3 pIC50 [1]: 7.3 | Ba/F3 Ros1 L2026M (-IL-3) pIC50 [2]: 7.0 | CC50 [3]: > 10000 nM | EC50 [4]: 794 nM | IC50 ([5]; HCC78, 4 h): 79.4 nM | melting point: 276 °C

CC1Cn2nc(-c3ccncc3)c(-c3ccc(OCc4ccc(C5CC5)cc4)cc3)c2C(=O)N1 (centres unmarked) [Compound 189]
IC50 (Ros1 enzyme): 31.6 nM | BaF3-ROS1-IL3 pIC50 [1]: 7.1 | CC50 [3]: > 10000 nM | EC50 [4]: 200 nM | IC50 ([5]; HCC78, 4 h): 39.8 nM | melting point: 249 °C

CC(C)c1ccc(COc2ccc(-c3c(-c4ccncn4)nn4c3C(=O)N(CCN)CC4)cc2)cc1 [Compound 165]
IC50 (Ros1 enzyme): 200 nM | BaF3-ROS1-IL3 pIC50 [1]: 6.7 | Ba/F3 Ros1 L2026M (-IL-3) pIC50 [2]: 6.5 | CC50 [3, 6]: > 10000 nM | EC50 ([4]; HCC78 cells, 4 days, MTT): 1260 nM | IC50 [5, 7]: 631 nM | melting point: 154 °C

CC(C)c1ccc(COc2ccc(-c3c(-c4ccncc4)nn4c3C(=O)NCC4)cc2C#N)cc1 [Compound 26]
IC50 (Ros1 enzyme): 398 nM | BaF3-ROS1-IL3 pIC50 [1]: 6.6 | Ba/F3 Ros1 L2026M (-IL-3) pIC50 [2]: 6.5 | CC50 [3]: > 10000 nM | EC50 [4]: 794 nM | IC50 ([5]; HCC78, 4 h): 631 nM | melting point: 235 °C

O=C1NCCn2nc(-c3ccncc3)c(-c3ccc(OCc4ccc(C(F)(F)F)cc4)cc3)c21 [Compound 119]
IC50 (Ros1 enzyme): 200 nM | BaF3-ROS1-IL3 pIC50 [1]: 7.2 | Ba/F3 Ros1 L2026M (-IL-3) pIC50 [2]: 6.9 | CC50 [3]: > 10000 nM | EC50 [4]: 398 nM | IC50 ([5]; HCC78, 4 h): 316 nM | melting point: 280 °C

CC(C)c1ccc(COc2ccc(-c3c(-c4ccncc4)nn4c3CN(C)CC4)cc2)cc1 [Compound 185]
IC50 (Ros1 enzyme): 126 nM | BaF3-ROS1-IL3 pIC50 [1]: 6.3 | CC50 [3, 6]: > 10000 nM | EC50 ([4]; HCC78 cells, 4 days, MTT): 794 nM | IC50 [5, 7]: 158 nM | melting point: 120 °C

CC(C)c1ccc(COc2ccc(-c3c(-c4ccncc4F)nn4c3C(=O)NCC4)cc2)cc1 [Compound 151]
IC50 (Ros1 enzyme): 31.6 nM | BaF3-ROS1-IL3 pIC50 [1]: 7.4 | Ba/F3 Ros1 L2026M (-IL-3) pIC50 [2]: 7.1 | CC50 [3]: > 10000 nM | EC50 [4]: 63.1 nM | IC50 ([5]; HCC78, 4 h): 20 nM

COc1cc(-c2c(-c3ccnc(N)c3)nn3c2C(=O)N(C)CC3)ccc1OCc1ccc(C(C)C)cc1 [Compound 150]
IC50 (Ros1 enzyme): 7.94 nM | BaF3-ROS1-IL3 pIC50 [1]: 7.6 | Ba/F3 Ros1 L2026M (-IL-3) pIC50 [2]: 7.4 | CC50 [3]: > 10000 nM | EC50 [4]: 39.8 nM | IC50 ([5]; HCC78, 4 h): 10 nM

O=C1NCCCn2nc(-c3ccncc3)c(-c3ccc(OCc4ccc(C5CC5)cc4)cc3)c21 [Compound 228]
IC50 (Ros1 enzyme): 398 nM | BaF3-ROS1-IL3 pIC50 [1]: 6.3 | CC50 [3, 6]: > 10000 nM | EC50 ([4]; HCC78 cells, 4 days, MTT): 2000 nM | IC50 [5, 7]: 501 nM | melting point: 235 °C

CC(C)c1ccc(COc2ccc(-c3c(-c4ccncc4)nn4c3C(=O)N(C)CC4)cc2)cc1 [Compound 48]
IC50 (Ros1 enzyme): 31.6 nM | BaF3-ROS1-IL3 pIC50 [1]: 7.1 | CC50 [3, 6]: > 10000 nM | EC50 ([4]; HCC78 cells, 4 days, MTT): 398 nM | IC50 [5, 7]: 63.1 nM | melting point: 155 °C

From patent US10280170B2, “Substituted 4,5,6,7-tetrahydro-pyrazolo[1,5-a]pyrazine derivatives and 5,6,7,8-tetrahydro-4H-pyrazolo[1,5-a][1,4]diazepine derivatives as Ros1 inhibitors” (Janssen Pharmaceutica NV, priority 2014, dated 2019)
